# Results taken from patent US7462613B2, “Pyridazinone derivatives as pharmaceuticals and pharmaceutical compositions containing them” (SANOFI-AVENTIS Deutschland GmbH, priority 2002, dated 2008).
# Target: CDK2/Cyclin E kinase (Homo sapiens, UniProt P24941)
# Assay: CDK2/Cyclin E Flashplate Assay: 96-Well Format
# Format: biochemical
# Conditions: streptavidin-coated flashplate; biotinylated-Rb peptide substrate 10 μM; 33P-ATP/ATP 1 μM; CDK2/Cyclin E 20 nM; 30 minutes at 30° C.; 1% DMSO
# Experimental: Functional Measurements for Determination of IC50-Values
# CDK2/Cyclin E Flashplate Assay: 96-Well Format
# A 96-well streptavidin-coated flashplate was used to assay potency of compounds according formula (I) against CDK2/Cyclin E kinase. To carry out the assay, biotinylated-Rb peptide substrate (Biotin-[…]-OH) was solubilized at 1 mM in kinase buffer (Hepes 50 mM, NaCl 1 mM, MgCl2 5 mM pH 7.5) as a stock solution conserved at −20° C. in aliquots of 110 μl. The day of the experiment, an aliquot of this solution was thawed and diluted to 14.3 μM in kinase buffer, containing 1 mM dithiothreitol (DTT) added in the buffer at the same time.
# 70 μl of this solution was added in each well of the flashplate in order to achieve a final concentration of 10 μM (100 μl reactionnal volume). Serial dilutions of inhibitors were prepared in DMSO from 10 mM stock solutions in order to achieve 1000 μM, 333.3 μM, 111.1 μM, 37.03 μM, 12.35 μM, 4.11 μM and 1.37 μM and all were rediluted in kinase buffer+DTT in order to achieve 100 μM, 33.3 μM, 11.1 μM, 3.7 μM, 1.24 μM, 0.41 μM and 0.14 μM in DMSO 10% buffer (vol/vol). 10 μl of each, of these solutions (or 10 μl of buffer+DTT for controls) were transferred to the testplate wells in order to achieve 10 μM, 3.33 μM, 1.11 μM, 0.37 μM, 0.12 μM, 0.04. μM and 0.01 μM as final concentrations, 1% DMSO (vol/vol). In each well, 10 μl of a solution of a mix of ^33PyATP/ATP were added in order to achieve 1 μM final concentration and a total of 1 μCi. The kinase reaction was initiated by addition of 10 μl of a solution at 200 nM of CDK2/Cyclin E in kinase buffer+DTT (or buffer+DTT for blanks) in order to achieve 20 nM final concentration. After addition of each reagent, the test-plate was shakened. The plates were incubated 30 minutes at 30° C. with a shaking at 650 rpm. At the end of the incubation, the plates were washed 3 times with 300 μl of PBS (without calcium and magnesium) per well. The incorporation of ^33P to the peptide was measured by scintillation counting.
row,SMILES,IC50 [nM]
1,"CCCCNc1nccc(-c2cc(C(=O)NCCCN3CCN(C)CC3)c(=O)[nH]n2)n1 [Example 218, 6-(2-Butylamino-pyrimidin-4-yl)-3-oxo-2,3-dihydro-pyridazine-4-carboxylic acid [3-(4-methyl-piperazin-1-yl)-propyl]-amide; compoundwith trifluoro-acetic acid]",107
2,"O=C(NCc1ccc(Cl)cc1)c1cc(-c2ccncc2)n[nH]c1=O [Example 4, N-(4-chlorobenzyl)-3-oxo-6-pyridin-4-yl-2,3-dihydropyridazine-4-carboxamide-6]",577
3,"O=C(NCc1ccc(Cl)cc1)c1cc(-c2ccc(O)c(F)c2)n[nH]c1=O [Example 183, 6-(3-Fluoro-4-hydroxy-phenyl)-3-oxo-2,3-dihydro-pyridazine-4-carboxylic acid 4-chloro-benzylamide]",102
4,"CNc1cc(-c2cc(C(=O)NCc3ccc(Cl)cc3)c(=O)[nH]n2)ccn1 [Example 206, 6-(2-Methylamino-pyridin-4-yl)-3-oxo-2,3-dihydro-pyridazine-4-carboxylicacid 4-chloro-benzylamide]",157
5,"O=C(NCc1ccc(Cl)cc1)c1cc(-c2ccnc(NCCN3CCOCC3)n2)n[nH]c1=O [Example 175, 6-[2-(2-Morpholin-4-yl-ethylamino)-pyrimidin-4-yl]-3-oxo-2,3-dihydro-pyridazine-4-carboxylicacid 4-chloro-benzylamide; compoundwith trifluoro-acetic acid]",27
6,"O=C(NCc1ccc(Cl)c(Cl)c1)c1cc(-c2ccncc2)n[nH]c1=O [Example 16, N-(3,4-dichlorobenzyl)-3-oxo-6-pyridin-4-yl-2,3-dihydropyridazine-4-carboxamide]",174
7,"O=C(NCCCCO)c1cc(-c2ccncc2)n[nH]c1=O [Example 31, 3-Oxo-6-pyridin-4-yl-2,3-dihydro-pyridazine-4-carboxylic acid (4-hydroxy-butyl)-amide]",581
8,"CNc1nccc(-c2cc(C(=O)NCc3ccc(Cl)cc3)c(=O)[nH]n2)n1 [Example 34, 6-(2-Methylamino-pyrimidin-4-yl)-3-oxo-2,3-dihydro-pyridazine-4-carboxylic acid 4-chloro-benzylamide]",30
9,"CCNc1nccc(-c2cc(C(=O)NCc3ccc(Cl)cc3)c(=O)[nH]n2)n1 [Example 190, 6-(2-Ethylamino-pyrimidin-4-yl)-3-oxo-2,3-dihydro-pyridazine-4-carboxylic acid 4-chloro-benzylamide]",18
10,"O=C(NCc1ccc2c(c1)OCO2)c1cc(-c2ccncc2)n[nH]c1=O [Example 84, 3-Oxo-6-pyridin-4-yl-2,3-dihydro-pyridazine-4-carboxylic acid(benzo[1,3]dioxol-5-ylmethyl)-amide;compound with trifluoro-acetic acid]",219
11,"CS(=O)(=O)c1ccc(CNC(=O)c2cc(-c3ccncc3)n[nH]c2=O)cc1 [Example 98, 3-Oxo-6-pyridin-4-yl-2,3-dihydro-pyridazine-4-carboxylic acid 4-methanesulfonyl-benzylamide; compoundwith trifluoro-acetic acid]",664
12,"COc1cc(-c2cc(C(=O)NCc3ccc(C(=O)O)cc3)c(=O)[nH]n2)ccc1O [Example 225, 4-({[6-(4-Hydroxy-3-methoxy-phenyl)-3-oxo-2,3-dihydro-pyridazine-4-carbonyl]-amino}-methyl)-benzoic acid]",149
13,"O=C(NCc1ccc(F)cc1)c1cc(-c2ccncc2)n[nH]c1=O [Example 125, 3-Oxo-6-pyridin-4-yl-2,3-dihydro-pyridazine-4-carboxylic acid 4-fluoro-benzylamide; compoundwith trifluoro-acetic acid]",519
14,"O=C(NCc1ccc(Cl)cc1Cl)c1cc(-c2ccncc2)n[nH]c1=O [Example 2, N-(2,4-dichlorobenzyl)-3-oxo-6-pyridin-4-yl-2,3-dihydropyridazine-4-carboxamide]",905
15,"O=C(NCc1ccc(Br)cc1)c1cc(-c2ccncc2)n[nH]c1=O [Example 75, 3-Oxo-6-pyridin-4-yl-2,3-dihydro-pyridazine-4-carboxylic acid 4-bromo-benzylamide; compoundwith trifluoro-acetic acid]",802
16,"CCCCNc1nccc(-c2cc(C(=O)NCCCc3cccnc3)c(=O)[nH]n2)n1 [Example 220, 6-(2-Butylamino-pyrimidin-4-yl)-3-oxo-2,3-dihydro-pyridazine-4-carboxylic acid (3-pyridin-3-yl-propyl)-amide]",12
17,"O=C(NCc1ccc(Cl)cc1)c1cc(-c2cc(F)c(O)c(F)c2)n[nH]c1=O [Example 182, 6-(3,5-Difluoro-4-hydroxy-phenyl)-3-oxo-2,3-dihydro-pyridazine-4-carboxylic acid 4-chloro-benzylamide]",464
18,"C[C@@H](Nc1nccc(-c2cc(C(=O)NCCCc3cccnc3)c(=O)[nH]n2)n1)c1ccccc1 [Example 167, R-3-Oxo-6-[2-(1-phenyl-ethylamino)-pyrimidin-4-yl]-2,3-dihydro-pyridazine-4-carboxylic acid (3-pyridin-3-yl-propyl)-amide]",125
19,"O=C(NCc1ccc(C(F)(F)F)cc1)c1cc(-c2ccncc2)n[nH]c1=O [Example 112, 3-Oxo-6-pyridin-4-yl-2,3-dihydro-pyridazine-4-carboxylic acid 4-trifluoromethyl-benzylamide; compoundwith trifluoro-acetic acid]",360
20,"O=C(NCc1ccc(Cl)cc1)c1cc(-c2cn[nH]c2)n[nH]c1=O [Example 39, 3-Oxo-6-(1H-pyrazol-4-yl)-2,3-dihydro-pyridazine-4-carboxylic acid 4-chloro-benzylamide]",344
21,"Cc1ccc(CNC(=O)c2cc(-c3ccncc3)n[nH]c2=O)s1 [Example 139, 3-Oxo-6-pyridin-4-yl-2,3-dihydro-pyridazine-4-carboxylic acid (5-methyl-thiophen-2-ylmethyl)-amide; compound withtrifluoro-acetic acid]",353
22,"O=C(NCc1ccc(O)cc1)c1cc(-c2ccncc2)n[nH]c1=O [Example 18, N-(4-hydroxybenzyl)-3-oxo-6-pyridin-4-yl-2,3-dihydropyridazine-4-arboxamide]",536
23,"O=C(NCc1ccc(Cl)s1)c1cc(-c2ccncc2)n[nH]c1=O [Example 142, 3-Oxo-6-pyridin-4-yl-2,3-dihydro-pyridazine-4-carboxylic acid (5-chloro-thiophen-2-ylmethyl)-amide; compound withtrifluoro-acetic acid]",356
24,"O=C(NCCCc1ccccc1)c1cc(-c2ccncc2)n[nH]c1=O [Example 66, 3-Oxo-6-pyridin-4-yl-2,3-dihydro-pyridazine-4-carboxylic acid (3-phenyl-propyl)-amide; compoundwith trifluoro-acetic acid]",521
25,"CCCCNc1nccc(-c2cc(C(=O)NCc3cccnc3)c(=O)[nH]n2)n1 [Example 219, 6-(2-Butylamino-pyrimidin-4-yl)-3-oxo-2,3-dihydro-pyridazine-4-carboxylic acid (pyridin-3-ylmethyl)-amide]",15
26,"O=C(NCc1ccc(Cl)cc1)c1cc(-c2ccc(O)cc2)n[nH]c1=O [Example 40, 6-(4-Hydroxy-phenyl)-3-oxo-2,3-dihydro-pyridazine-4-carboxylicacid 4-chloro-benzylamide]",119
27,"COC(=O)c1ccc(CNC(=O)c2cc(-c3ccncc3)n[nH]c2=O)cc1 [Example 217, 4-{[(3-Oxo-6-pyridin-4-yl-2,3-dihydro-pyridazine-4-carbonyl)-amino]-methyl}-benzoic acid methylester; compound withtrifluoro-acetic acid]",24
28,"O=C(NCc1ccc(Cl)cc1)c1cc(-c2ccc(O)c(Cl)c2)n[nH]c1=O [Example 180, 6-(3-Chloro-4-hydroxy-phenyl)-3-oxo-2,3-dihydro-pyridazine-4-carboxylic acid 4-chloro-benzylamide]",173
29,"O=C(NCc1ccc(Cl)cc1F)c1cc(-c2ccncc2)n[nH]c1=O [Example 116, 3-Oxo-6-pyridin-4-yl-2,3-dihydro-pyridazine-4-carboxylic acid 4-chloro-2-fluoro-benzylamide;compound with trifluoro-acetic acid]",787
30,"CCOC(=O)CCNC(=O)c1cc(-c2ccncc2)n[nH]c1=O [Example 13, Ethyl 3-[(3-oxo-6-pyridin-4-yl-2,3-dihydropyridazine-4-carbonyl)amino]propionate]",764
